Here are results for 6 compounds from ChEMBL document CHEMBL2396531, “Hybrid molecule from O2-(2,4-dinitrophenyl)diazeniumdiolate and oleanolic acid: a glutathione S-transferase π-activated nitric oxide prodrug with selective anti-human hepatocellular carcinoma activity and improved stability” (J Med Chem, 2013).

Series [1] deals with H22. Put plainly: Antitumor activity against mouse H22 cells […] in mouse assessed as inhibition of tumor growth at 153.8 umol/kg, ip after 14 days relative to vehicle-treated control. It counts as functional. The conditions noted are these: 336 h.
The subject of series [2] is SMMC-7721. Put plainly: Cytotoxicity against human SMMC7721 cells after 72 hrs by MTT assay. It counts as functional, cell-based. The conditions noted are these: SMMC-7721, 72 h. In general terms: Tetrazolium dyes change colour on reduction, which living cells bring about.
The test system of series [3] is HepG2. Put plainly: Cytotoxicity against human HepG2 cells after 72 hrs by MTT assay. It counts as functional, cell-based. To be noted: HepG2, 72 h.
Series [4] deals with Bel-7402. In words: Cytotoxicity against human Bel7402 cells after 72 hrs by MTT assay. The conditions noted are these: Bel-7402, 72 h. It counts as functional, cell-based.
Series [5] concerns HepG2. Put plainly: Cytotoxicity against human HepG2 cells after 48 hrs by MTT assay. To be noted: HepG2, 48 h. The series is classed as functional, cell-based.
Series [6] has as its system HepG2. In words: Cytotoxicity against human HepG2 cells after 24 hrs by MTT assay. To be noted: HepG2, 24 h. The series is classed as functional, cell-based.
In series [7] the test system is Bel-7402. In words: Cytotoxicity against human Bel7402 cells at 30 uM after 24 hrs by MTT assay. It counts as functional.
In series [8] the test system is HepG2. In words: Cytotoxicity against human HepG2 cells at 30 uM after 24 hrs by MTT assay. The series is classed as functional.
In series [9] the test system is SMMC-7721. In words: Cytotoxicity against human SMMC7721 cells at 30 uM after 24 hrs by MTT assay. It counts as functional.
A short description of series [10]: Activity at GSTalpha (unknown origin) assessed per mg protein by Michaelis-Menten equation. It counts as ADME. The conditions noted are these: human.
A short description of series [11]: (§1) Activity at GSTalpha (unknown origin) by Michaelis-Menten equation. The series is classed as ADME. To be noted: human.
The next series deals with GSTalpha. The description is as §1. The series is classed as ADME. The conditions noted are these: human, GSTalpha enzyme.
The nature of series [12]: Activity at GSTalpha (unknown origin) assessed as compound decomposition in presence of 1mM GSH at 40 uM by microplate reader analysis. The conditions noted are these: human. It counts as ADME.
Series [13] concerns the target Glutathione S-transferase P (Homo sapiens, UniProt P09211). Put plainly: Activity at GSTpi (unknown origin) assessed as compound decomposition in presence of 1mM GSH at 40 uM by microplate reader analysis. The series is classed as ADME.
The subject of series [14] is H22. In words: Antitumor activity against mouse H22 cells […] in mouse assessed as inhibition of tumor growth at 38.3 umol/kg, ip after 14 days relative to vehicle-treated control. It counts as functional. The conditions noted are these: 336 h.
The test system of series [15] is H22. In words: Antitumor activity against mouse H22 cells […] in mouse assessed as inhibition of tumor growth at 19.2 umol/kg, ip after 14 days relative to vehicle-treated control. It counts as functional. The conditions noted are these: 336 h.
In series [16] the test system is H22. Put plainly: Antitumor activity against mouse H22 cells […] in mouse assessed as inhibition of tumor growth at 9.6 umol/kg, ip after 14 days relative to vehicle-treated control. The series is classed as functional. To be noted: 336 h.
Series [17] in a line: Acute toxicity in ip dosed mouse after 14 days. The series is classed as organism-based. The conditions noted are these: in vivo.
The test system of series [18] is Mus musculus. In words: Acute toxicity in mouse assessed as activity at 196.1 umol/kg, ip after 14 days. It counts as organism-based. To be noted: in vivo, 336 h.
Series [19] has as its system Mus musculus. Put plainly: Acute toxicity in mouse assessed as abnormality in drinking at 196.1 umol/kg, ip after 14 days. It counts as organism-based. The conditions noted are these: in vivo, 336 h.
For series [20], the system named is Mus musculus. Put plainly: Acute toxicity in mouse assessed as body weight at 196.1 umol/kg, ip after 14 days. It counts as organism-based. To be noted: in vivo, 336 h.
Series [21] deals with Mus musculus. In words: Acute toxicity in mouse assessed as abnormality in eating at 196.1 umol/kg, ip after 14 days. The series is classed as organism-based. The conditions noted are these: in vivo, 336 h.
Series [22] deals with Mus musculus. Put plainly: Acute toxicity in mouse assessed as mortality at 196.1 umol/kg, ip after 14 days. The series is classed as organism-based. The conditions noted are these: in vivo, 336 h.
The subject of series [23] is Mus musculus. Put plainly: Acute toxicity in mouse assessed as mortality at 383.1 umol/kg, ip after 14 days. The series is classed as organism-based. To be noted: in vivo, 336 h.
Series [24] can be described thus: Metabolic stability in Sprague-Dawley rat plasma at 40 uM after 9 hrs by HPLC analysis. It counts as ADME, cell-free. To be noted: read-out: Stability.
The subject of another series is Plasma. Put plainly: Metabolic stability in Sprague-Dawley rat plasma at 40 uM after 6 hrs by HPLC analysis. The series is classed as ADME, cell-free.
Series [25] is described as follows: Chemical stability in PBS buffer at pH 7.4 in presence of 5 mM GSH at 37 degC after 100 mins by HPLC analysis. The series is classed as physicochemical. The conditions noted are these: PBS buffer with 5 mM GSH, read-out: Stability.
Series [26] can be described thus: Chemical stability in PBS buffer at pH 7.4 in presence of 1 mM GSH at room temperature for 30 mins by spectrophotometry. The series is classed as physicochemical. The conditions noted are these: pH 7.4, 0.5 h.
In series [27] the test system is HepG2. In words: Induction of intracellular NO release in human HepG2 cells at 30 uM after 6 hrs by Griess assay relative to PABA/NO. The series is classed as functional. A general note: Griess reagent forms a coloured azo dye with nitrite.
Series [28] has as its system HepG2. In words: Induction of intracellular NO release in human HepG2 cells at 30 uM after 6 hrs by Griess assay relative to JS-K. The series is classed as functional.
Series [29] has as its system HepG2. In words: Cytotoxicity against human HepG2 cells assessed as cell viability at 3 uM after 24 hrs by MTT assay. The series is classed as functional. The conditions noted are these: HepG2, 24 h, read-out: Activity.
In series [30] the test system is HepG2. In words: Cytotoxicity against human HepG2 cells assessed as cell viability at 3 uM after 24 hrs by MTT assay in presence of EA. To be noted: HepG2, 24 h, read-out: Activity. It counts as functional.
Series [31] can be described thus: Cytotoxicity against human LO2 cells at 1 to 4 uM after 24 hrs by MTT assay. The series is classed as cell-based. To be noted: l02, 24 h.
Series [32] is described as follows: Chemical stability in PBS buffer at pH 7.4 in presence of 4 mM GSH at 37 degC after 15 to 20 mins by HPLC analysis. The series is classed as physicochemical.

Sequence of Glutathione S-transferase P (P09211 whole entry): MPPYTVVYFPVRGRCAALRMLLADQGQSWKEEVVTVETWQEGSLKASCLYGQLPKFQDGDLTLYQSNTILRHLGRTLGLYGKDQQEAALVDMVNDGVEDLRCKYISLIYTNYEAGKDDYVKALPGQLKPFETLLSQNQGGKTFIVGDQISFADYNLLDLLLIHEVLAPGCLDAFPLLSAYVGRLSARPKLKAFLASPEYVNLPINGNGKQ

Consider `O=c1[nH]cc(F)c(=O)[nH]1` [FLUOROURACIL], for which the inhibition in vivo (as a rule, the change of the read-out against control, counted positive when it falls) at 153.8 µmol/kg in the series with H22 [1] amounted to 57.5%.

Regarding `C[C@H](Nc1cc(O/N=[N+](\[O-])N(C)CCO)c([N+](=O)[O-])cc1[N+](=O)[O-])C(=O)O[C@H]1CC[C@]2(C)[C@H]3CC=C4[C@@H]5CC(C)(C)CC[C@]5(C(=O)O[C@@H]5O[C@H](CO)[C@H](O)[C@H](O)[C@H]5O)CC[C@@]4(C)[C@]3(C)CC[C@H]2C1(C)C`, the concentration for half-maximal inhibition (IC50) – broadly, the concentration that inhibits the measured activity by half – with SMMC-7721 [2] came to 8.84 µM; with HepG2 [3] it was 6.91 µM; in the series on Bel-7402 [4] it was 7.38 µM; in the series on HepG2 [5] it was 7.89 µM; with HepG2 [6], 9.12 µM.

`CN(CCO)/[N+]([O-])=N\Oc1cc(NCCC(=O)O[C@H]2CC[C@]3(C)[C@H]4CC=C5[C@@H]6CC(C)(C)CC[C@]6(C(=O)O[C@@H]6O[C@H](CO)[C@H](O)[C@H](O)[C@H]6O)CC[C@@]5(C)[C@]4(C)CC[C@H]3C2(C)C)c([N+](=O)[O-])cc1[N+](=O)[O-]`: the IC50 in the series with SMMC-7721 [2] is 3.97 µM; with HepG2 [3], 2.05 µM; with Bel-7402 [4] it was 2.36 µM; with HepG2 [5], 3.56 µM; with HepG2 [6], 5.45 µM. Also, the Cytotoxicity with Bel-7402 [7], in the series on HepG2 [8] and in the series with SMMC-7721 [9] was over 70% in each case.

Turning to `CN(CCO)/[N+]([O-])=N\Oc1cc(N2CCN(CC(=O)O[C@H]3CC[C@]4(C)[C@H]5CC=C6[C@@H]7CC(C)(C)CC[C@]7(C(=O)O[C@@H]7O[C@H](CO)[C@H](O)[C@H](O)[C@H]7O)CC[C@@]6(C)[C@]5(C)CC[C@H]4C3(C)C)CC2)c([N+](=O)[O-])cc1[N+](=O)[O-]`, the maximum rate (Vmax) (as a rule, the rate approached at saturating substrate) in series [10] is 1.69 µmol/min. Also, the Kcat in [11] came to 0.72 s⁻¹. Also, the Michaelis-Menten constant (Km) – broadly, the substrate concentration at which the rate is half of its maximum – with GSTalpha stood at 264 µM. In addition, the Activity entry in [12] is “Active”; in [13], “Active”; with Mus musculus [18] it was “Non-toxic”; in the series on Mus musculus [19], “Non-toxic”; in the series on Mus musculus [20] it was “Non-toxic”; in the series with Mus musculus [21] it was “Non-toxic”. Moreover, the Activity result was “Non-toxic” in the series on Mus musculus [22], “Toxic” in the series with Mus musculus [23] and “Toxic” in [31]. The inhibition in vivo at 38.3 µmol/kg in the series with H22 [14] worked out at 68.4%. In addition, in the series with H22 [15], the inhibition in vivo at 19.2 µmol/kg came to 36.1%. Also, in the series with H22 [16], the inhibition in vivo at 9.6 µmol/kg stood at 13.4%. In [17], the LD50 (in general, the dose at which mortality reaches 50%) at 336 h turned out to be 250 µmol/kg. In addition, the remaining at 9 h, 40 µM in [24] came out at 80%. In addition, the Stability entry (in the series on Plasma; in [26]) was “Stable” in each case. Besides, the remaining at 100 min in [25] is 78%. In addition, the Ratio in the series with HepG2 [27] and in the series with HepG2 [28] was 2 throughout. Moreover, the viability at 3 µM in the series on HepG2 [29] is 17%; with HepG2 [30], 41.7%. Moreover, the IC50 was determined as 2.3 µM with SMMC-7721 [2]; 1.41 µM in the series on HepG2 [3]; 1.45 µM in the series on Bel-7402 [4]; 2.11 µM in the series on HepG2 [5]; 3.38 µM with HepG2 [6]. Besides, the Cytotoxicity in the series with Bel-7402 [7], in the series with HepG2 [8] and in the series with SMMC-7721 [9] was 80% throughout.

For the compound `CCOC(=O)N1CCN(/[N+]([O-])=N/Oc2ccc([N+](=O)[O-])cc2[N+](=O)[O-])CC1`, the Stability result is recorded as “Unstable” in series [32] and “Stable” in series [26]. Also, the half-maximal inhibitory concentration (IC50) came out at 7.31 µM with SMMC-7721 [2]; 5.19 µM in the series with HepG2 [3]; 5.17 µM in the series on Bel-7402 [4]; 7.12 µM in the series with HepG2 [5]; 12.2 µM with HepG2 [6]. The Cytotoxicity in the series on Bel-7402 [7], in the series on HepG2 [8] and with SMMC-7721 [9] was 67% each time.

Turning to `CN(CCO)/[N+]([O-])=N/Oc1cc(NCC(=O)O[C@H]2CC[C@]3(C)[C@H]4CC=C5[C@@H]6CC(C)(C)CC[C@]6(C(=O)O[C@@H]6O[C@H](CO)[C@H](O)[C@H](O)[C@H]6O)CC[C@@]5(C)[C@]4(C)CC[C@H]3C2(C)C)c([N+](=O)[O-])cc1[N+](=O)[O-]`, the IC50 was 7.44 µM with SMMC-7721 [2]; 3.65 µM with HepG2 [3]; 5.68 µM with Bel-7402 [4]; 6.65 µM with HepG2 [5]; 9.59 µM in the series on HepG2 [6].
